Our source for the IC50 values is patent US20230295119A1, “SUBSTITUTED PYRIDINES FOR THE TREATMENT OF INFLAMMATORY DISEASES” (GOSSAMER BIO SERVICES, INC., priority 2020, published 2023).

In one experiment the target is human JAK1 (Homo sapiens (Human), UniProt P23458). Nature of the experiment: JAK1 TR-FRET kinase assay. Particulars: TR-FRET, JAK1 2.5 nM. It is filed as biochemical.
A further experiment has as its target TYK2 JH2 domain (Homo sapiens (Human), UniProt P29597). The experiment is described as follows: TYK2 JH2 NanoBRET assay. It is filed as binding. The conditions noted are these: Table 20, read-out: TYK2 IC50. Summed up:
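Tracer displacement measured by BRET ratio (acceptor over donor) in live HEK293T cells transfected with a NanoLuc-tagged TYK2 JH2 construct; cells co-exposed to test compound and 0.5 µM final K10 tracer for 2 h before substrate/extracellular inhibitor addition.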
For orientation: In BRET a luciferase serves as donor, and the signal depends on an acceptor being close.

The target of the next experiment is human JAK2 (Homo sapiens (Human), UniProt O60674). The experiment is described as follows: JAK2 TR-FRET kinase assay. The class given is biochemical. The conditions noted are these: JAK2 0.025 nM. (In general: Time-resolved FRET reads energy transfer from a long-lived donor to a nearby acceptor.)
Chain of human JAK2 (O60674 whole entry): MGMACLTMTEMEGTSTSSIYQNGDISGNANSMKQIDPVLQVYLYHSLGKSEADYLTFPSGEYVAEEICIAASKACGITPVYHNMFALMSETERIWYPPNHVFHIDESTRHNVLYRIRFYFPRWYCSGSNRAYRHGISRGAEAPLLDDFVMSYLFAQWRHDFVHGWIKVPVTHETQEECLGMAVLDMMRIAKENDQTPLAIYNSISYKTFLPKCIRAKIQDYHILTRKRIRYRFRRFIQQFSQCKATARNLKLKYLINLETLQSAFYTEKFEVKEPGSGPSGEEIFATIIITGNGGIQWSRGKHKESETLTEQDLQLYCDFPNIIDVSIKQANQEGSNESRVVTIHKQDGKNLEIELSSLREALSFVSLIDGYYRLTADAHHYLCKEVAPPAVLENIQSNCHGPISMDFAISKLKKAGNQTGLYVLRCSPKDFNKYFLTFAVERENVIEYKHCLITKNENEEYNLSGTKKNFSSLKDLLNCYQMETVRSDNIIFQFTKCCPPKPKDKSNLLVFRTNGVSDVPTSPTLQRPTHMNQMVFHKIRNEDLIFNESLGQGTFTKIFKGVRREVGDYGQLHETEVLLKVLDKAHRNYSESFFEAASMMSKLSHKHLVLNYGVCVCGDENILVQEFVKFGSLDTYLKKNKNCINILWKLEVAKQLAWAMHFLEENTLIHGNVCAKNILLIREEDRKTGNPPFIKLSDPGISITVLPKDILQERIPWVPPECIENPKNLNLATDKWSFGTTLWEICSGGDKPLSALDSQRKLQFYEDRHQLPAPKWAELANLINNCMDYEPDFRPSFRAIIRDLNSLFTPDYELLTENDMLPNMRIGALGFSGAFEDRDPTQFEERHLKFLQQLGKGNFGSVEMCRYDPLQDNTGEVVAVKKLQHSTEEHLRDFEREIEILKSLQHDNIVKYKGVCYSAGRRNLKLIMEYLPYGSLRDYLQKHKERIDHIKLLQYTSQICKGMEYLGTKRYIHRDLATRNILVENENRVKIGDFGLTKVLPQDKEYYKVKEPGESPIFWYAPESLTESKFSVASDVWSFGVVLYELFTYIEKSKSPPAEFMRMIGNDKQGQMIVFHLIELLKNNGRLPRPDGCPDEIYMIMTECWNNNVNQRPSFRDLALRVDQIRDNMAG
For another experiment, the target named is human JAK3 (Homo sapiens (Human), UniProt P52333). Nature of the experiment: JAK3 TR-FRET kinase assay. The conditions noted are these: JAK3 0.0125 nM. The class given is biochemical.
Chain of human JAK3 (P52333 whole entry): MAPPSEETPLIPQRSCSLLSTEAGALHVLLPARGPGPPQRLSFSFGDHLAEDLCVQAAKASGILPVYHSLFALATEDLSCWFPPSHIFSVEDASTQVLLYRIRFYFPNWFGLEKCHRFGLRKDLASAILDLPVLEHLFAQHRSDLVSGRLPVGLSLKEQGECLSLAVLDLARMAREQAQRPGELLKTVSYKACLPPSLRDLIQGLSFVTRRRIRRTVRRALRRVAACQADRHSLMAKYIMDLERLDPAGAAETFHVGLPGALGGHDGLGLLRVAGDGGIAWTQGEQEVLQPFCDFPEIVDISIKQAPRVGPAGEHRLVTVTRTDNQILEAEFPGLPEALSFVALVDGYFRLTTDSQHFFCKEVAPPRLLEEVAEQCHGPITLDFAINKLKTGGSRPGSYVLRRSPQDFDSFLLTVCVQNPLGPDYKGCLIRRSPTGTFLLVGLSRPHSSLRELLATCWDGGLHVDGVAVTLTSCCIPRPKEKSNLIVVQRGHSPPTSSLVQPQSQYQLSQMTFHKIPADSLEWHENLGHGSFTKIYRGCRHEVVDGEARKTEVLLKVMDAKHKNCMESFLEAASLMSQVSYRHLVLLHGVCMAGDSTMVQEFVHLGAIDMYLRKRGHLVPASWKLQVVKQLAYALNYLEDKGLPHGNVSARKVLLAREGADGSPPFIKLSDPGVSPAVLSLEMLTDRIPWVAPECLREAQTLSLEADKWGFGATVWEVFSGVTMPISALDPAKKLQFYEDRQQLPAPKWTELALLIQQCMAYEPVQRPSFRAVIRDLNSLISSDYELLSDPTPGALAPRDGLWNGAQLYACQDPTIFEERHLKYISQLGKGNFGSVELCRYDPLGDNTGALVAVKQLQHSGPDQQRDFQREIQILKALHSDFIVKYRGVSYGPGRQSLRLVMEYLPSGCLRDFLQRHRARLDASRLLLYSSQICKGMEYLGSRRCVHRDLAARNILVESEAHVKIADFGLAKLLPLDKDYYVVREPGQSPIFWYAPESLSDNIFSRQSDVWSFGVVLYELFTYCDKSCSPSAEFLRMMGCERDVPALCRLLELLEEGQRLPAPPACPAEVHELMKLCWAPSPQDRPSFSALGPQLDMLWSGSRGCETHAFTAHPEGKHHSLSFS

Chain of TYK2 JH2 domain (P29597 589-875): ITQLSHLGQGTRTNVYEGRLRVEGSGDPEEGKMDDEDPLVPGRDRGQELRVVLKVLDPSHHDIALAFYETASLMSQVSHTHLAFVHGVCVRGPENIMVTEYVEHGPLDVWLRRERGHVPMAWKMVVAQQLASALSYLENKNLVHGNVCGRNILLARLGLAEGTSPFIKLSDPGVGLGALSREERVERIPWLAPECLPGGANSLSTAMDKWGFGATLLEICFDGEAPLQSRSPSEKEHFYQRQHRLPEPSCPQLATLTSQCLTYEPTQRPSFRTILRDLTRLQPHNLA
Chain of human JAK1 (P23458 whole entry, the tested form may be a part): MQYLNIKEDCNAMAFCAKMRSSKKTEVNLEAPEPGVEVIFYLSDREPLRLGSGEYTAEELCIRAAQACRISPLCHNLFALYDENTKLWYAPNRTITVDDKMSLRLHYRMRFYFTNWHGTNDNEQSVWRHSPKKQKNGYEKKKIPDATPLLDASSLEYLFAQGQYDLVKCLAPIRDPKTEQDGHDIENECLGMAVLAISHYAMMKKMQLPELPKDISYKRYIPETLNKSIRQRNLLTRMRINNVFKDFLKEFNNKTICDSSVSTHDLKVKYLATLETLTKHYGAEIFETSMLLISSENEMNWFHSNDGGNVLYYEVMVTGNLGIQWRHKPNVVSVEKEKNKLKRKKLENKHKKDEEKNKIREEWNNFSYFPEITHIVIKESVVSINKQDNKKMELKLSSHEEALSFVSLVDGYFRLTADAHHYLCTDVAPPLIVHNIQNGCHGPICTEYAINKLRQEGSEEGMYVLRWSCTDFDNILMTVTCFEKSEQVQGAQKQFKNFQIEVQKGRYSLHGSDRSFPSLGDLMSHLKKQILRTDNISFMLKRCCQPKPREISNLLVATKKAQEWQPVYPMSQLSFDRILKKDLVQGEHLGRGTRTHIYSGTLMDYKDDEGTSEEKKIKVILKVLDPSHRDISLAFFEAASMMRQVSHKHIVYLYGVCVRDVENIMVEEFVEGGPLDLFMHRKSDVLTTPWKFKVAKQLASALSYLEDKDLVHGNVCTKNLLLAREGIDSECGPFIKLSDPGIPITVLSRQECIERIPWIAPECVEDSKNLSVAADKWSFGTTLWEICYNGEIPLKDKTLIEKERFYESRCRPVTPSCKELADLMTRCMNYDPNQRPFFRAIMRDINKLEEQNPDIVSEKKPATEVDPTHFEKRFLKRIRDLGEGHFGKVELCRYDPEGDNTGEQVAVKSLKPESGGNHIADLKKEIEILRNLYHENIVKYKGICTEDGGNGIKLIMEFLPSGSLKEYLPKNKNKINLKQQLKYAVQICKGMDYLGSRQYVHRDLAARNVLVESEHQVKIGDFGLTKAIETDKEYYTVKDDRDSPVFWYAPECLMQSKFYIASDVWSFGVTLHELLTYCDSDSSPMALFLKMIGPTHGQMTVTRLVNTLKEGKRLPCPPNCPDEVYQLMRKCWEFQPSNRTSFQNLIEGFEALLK

What is called IC50 is the concentration at which inhibition is half-maximal. Take `CCC(=O)c1cnc(Nc2ccc(S(=O)(=O)CC)cn2)cc1Nc1nccc(-c2ncn(C)n2)c1OC` [Compound 13J]: the IC50 is at least 500 nM against human JAK1, below 5 nM on TYK2 JH2 domain, at least 500 nM against human JAK2 and at least 500 nM against human JAK3.
Take `CCC(=O)c1cnc(Nc2ccc(S(=O)(=O)C3CC3)cn2)cc1Nc1nccc(-c2ncn(C)n2)c1OC` [Compound 13K]: the IC50 against human JAK1 is at least 500 nM; on TYK2 JH2 domain, 5 to 50 nM; against human JAK2 it was 50 to 500 nM; against human JAK3 it was 50 to 500 nM.
Regarding `CCC(=O)c1cnc(Nc2ccc(S(C)(=N)=O)cn2)cc1Nc1nccc(-c2ncn(C)n2)c1OC` (stereo not shown) [Compound 13L], the IC50 against human JAK1, at TYK2 JH2 domain, at human JAK2 and against human JAK3 was at least 500 nM throughout.
Consider `CCC(=O)c1cnc(Nc2ccc(CS(C)(=O)=O)cn2)cc1Nc1nccc(-c2ncn(C)n2)c1OC` [Compound 13M], for which the IC50 on human JAK1 is at least 500 nM; on TYK2 JH2 domain it was below 5 nM; against human JAK2, 50 to 500 nM; at human JAK3 it was at least 500 nM.
On to `CCC(=O)c1cnc(Nc2cccc(CS(C)(=O)=O)n2)cc1Nc1cccc(-c2ncn(C)n2)c1OC` [Compound 13N], for which the IC50 on human JAK1 was at least 500 nM; on TYK2 JH2 domain, 5 to 50 nM; against human JAK2, 50 to 500 nM; at human JAK3, 50 to 500 nM.
Turning to `CCC(=O)c1cnc(Nc2ccc(S(C)(=O)=O)cn2)cc1Nc1cccc(CO)c1OC` [Compound 13P], the IC50 against human JAK1 is at least 500 nM; on TYK2 JH2 domain, 5 to 50 nM; at human JAK2 it was at least 500 nM; against human JAK3, 50 to 500 nM.
As to `CCC(=O)c1cnc(Nc2ccc(S(C)(=O)=O)cn2)cc1Nc1cccc(C(C)O)c1OC` (stereo not shown) [Compound 13Q], the IC50 on human JAK1 is at least 500 nM; at TYK2 JH2 domain, 5 to 50 nM; at human JAK2, at least 500 nM; on human JAK3, at least 500 nM.
As to `CCC(=O)c1cnc(Nc2ccc(S(C)(=O)=O)cn2)cc1Nc1cccc(COC)c1OC` [Compound 13R], the IC50 at human JAK1 was at least 500 nM; at TYK2 JH2 domain it was 5 to 50 nM; at human JAK2, at least 500 nM; at human JAK3 it was at least 500 nM.
Turning to `CCC(=O)c1cnc(Nc2ccc(CS(C)(=O)=O)nn2)cc1Nc1cccc(-c2ncn(C)n2)c1OC` [Compound 13T], the IC50 was at least 500 nM on human JAK1, 5 to 50 nM at TYK2 JH2 domain, at least 500 nM at human JAK2 and at least 500 nM against human JAK3.
Regarding `CCC(=O)c1cnc(Nc2cnc(CS(C)(=O)=O)cn2)cc1Nc1cccc(-c2ncn(C)n2)c1OC` [Compound 13U], the IC50 against human JAK1 is at least 500 nM; at TYK2 JH2 domain it was 5 to 50 nM; against human JAK2 it was at least 500 nM; on human JAK3, at least 500 nM.
On to `CCC(=O)c1cnc(Nc2ccc(C3(S(C)(=O)=O)CC3)nn2)cc1Nc1cccc(-c2ncn(C)n2)c1OC` [Compound 13V], for which the IC50 at human JAK1 is at least 500 nM; at TYK2 JH2 domain it was below 5 nM; on human JAK2, at least 500 nM; on human JAK3, at least 500 nM.
With `CCC(=O)c1cnc(Nc2ccc(S(C)(=O)=O)cn2)cc1Nc1ccc(C(=O)N2CCCC2)cc1OC` [Compound 13W], the IC50 is at least 500 nM against human JAK1, 50 to 500 nM on TYK2 JH2 domain, 50 to 500 nM at human JAK2 and 50 to 500 nM against human JAK3.
Regarding `CCC(=O)c1cnc(Nc2ccc(S(C)(=O)=O)cn2)cc1Nc1ccc(CO)cc1OC` [Compound 13X], the IC50 against human JAK1 was at least 500 nM; at TYK2 JH2 domain, 50 to 500 nM; on human JAK2, 50 to 500 nM; at human JAK3, 50 to 500 nM.
As to `CCC(=O)c1cnc(Nc2ccc(S(C)(=O)=O)cn2)cc1Nc1cccc(C(C)(C)O)c1OC` [Compound 13Y], the IC50 at human JAK1 was at least 500 nM; on TYK2 JH2 domain, 50 to 500 nM; against human JAK2, at least 500 nM; against human JAK3, at least 500 nM.
Take `CCC(=O)c1cnc(Nc2ncc(S(C)(=O)=O)cc2F)cc1Nc1cccc(-c2ncn(C)n2)c1OC` [Compound 13Z]: the IC50 at human JAK1 is at least 500 nM; on TYK2 JH2 domain, 50 to 500 nM; on human JAK2, at least 500 nM; at human JAK3, at least 500 nM.
For the molecule `CCC(=O)c1cnc(Nc2ccc(S(C)(=N)=O)cn2)cc1Nc1cccc(-c2ncn(C)n2)c1OC` (stereo not shown) [Compound 14A, imino(6-((4-((2-methoxy-3-(1-methyl-1H-1,2,4-triazol-3-yl)phenyl)amino)-5-propionylpyridin-2-yl)amino)pyridin-3-yl)(methyl)-16-sulfanone], the half-inhibitory concentration (IC50) against human JAK1 was at least 500 nM; on TYK2 JH2 domain it was below 5 nM; at human JAK2 it was at least 500 nM; on human JAK3 it was at least 500 nM.
Take `CCC(=O)c1cnc(Nc2ccc(-n3ccccc3=O)cn2)cc1Nc1cccc(-c2ncn(C)n2)c1OC` [Compound 15A, 6′-((4-((2-methoxy-3-(1-methyl-1H-1,2,4-triazol-3-yl)phenyl)amino)-5-propionylpyridin-2-yl)amino)-2H-[1,3′-bipyridin]-2-one]: the IC50 is at least 500 nM against human JAK1, below 5 nM at TYK2 JH2 domain, at least 500 nM at human JAK2 and at least 500 nM against human JAK3.
In the case of `CCC(=O)c1cnc(Nc2ncc(-n3ccccc3=O)cc2F)cc1Nc1cccc(-c2ncn(C)n2)c1OC` [Compound 15AA], the IC50 against human JAK1 was at least 500 nM; at TYK2 JH2 domain, 50 to 500 nM; at human JAK2, at least 500 nM; against human JAK3 it was at least 500 nM.
Take `CCC(=O)c1cnc(Nc2ccc3c(c2)COB3O)cc1Nc1cccc(-c2ncn(C)n2)c1OC` [Compound 15BB]: the IC50 was at least 500 nM against human JAK1, 5 to 50 nM at TYK2 JH2 domain, at least 500 nM on human JAK2 and at least 500 nM against human JAK3.
In the case of `CCC(=O)c1cnc(Nc2ccc(-c3cn(C)cn3)cn2)cc1Nc1cccc(-c2ncn(C)n2)c1OC` [Compound 15B], the IC50 was at least 500 nM against human JAK1, below 5 nM at TYK2 JH2 domain, at least 500 nM at human JAK2 and 50 to 500 nM against human JAK3.
Turning to `CCC(=O)c1cnc(Nc2cc3c(cn2)B(O)OC3)cc1Nc1cccc(-c2ncn(C)n2)c1OC` [Compound 15CC], the concentration for half-maximal inhibition (IC50) is at least 500 nM against human JAK1, below 5 nM at TYK2 JH2 domain, at least 500 nM on human JAK2 and at least 500 nM against human JAK3.
For `CCC(=O)c1cnc(Nc2ccc(-c3ncn(C)n3)cn2)cc1Nc1cccc(-c2ncn(C)n2)c1OC` [Compound 15C], the IC50 against human JAK1 is at least 500 nM; on TYK2 JH2 domain, below 5 nM; at human JAK2 it was at least 500 nM; against human JAK3, at least 500 nM.
With `CCC(=O)c1cnc(Nc2ccc(P(C)(C)=O)cn2)cc1Nc1cccc(-c2ncn(C)n2)c1OC` [Compound 15DD], the IC50 is at least 500 nM against human JAK1, 5 to 50 nM at TYK2 JH2 domain, at least 500 nM at human JAK2 and at least 500 nM at human JAK3.
For the molecule `CCC(=O)c1cnc(Nc2ccc(-c3cnn(C)c3)cn2)cc1Nc1cccc(-c2ncn(C)n2)c1OC` [Compound 15D], the IC50 against human JAK1 is at least 500 nM; at TYK2 JH2 domain, below 5 nM; at human JAK2, at least 500 nM; against human JAK3 it was at least 500 nM.
As for `CCC(=O)c1cnc(Nc2cc(-c3cn(C)cn3)ccn2)cc1Nc1cccc(-c2ncn(C)n2)c1OC` [Compound 15E], the IC50 is at least 500 nM at human JAK1, below 5 nM on TYK2 JH2 domain, at least 500 nM against human JAK2 and at least 500 nM on human JAK3.
As for `CCC(=O)c1cnc(Nc2cc(-c3ncn(C)n3)ccn2)cc1Nc1cccc(-c2ncn(C)n2)c1OC` [Compound 15F], the IC50 is at least 500 nM on human JAK1, below 5 nM on TYK2 JH2 domain, at least 500 nM against human JAK2 and at least 500 nM on human JAK3.
Consider `CCC(=O)c1cnc(Nc2cc(-c3cnn(C)c3)ccn2)cc1Nc1cccc(-c2ncn(C)n2)c1OC` [Compound 15G], for which the IC50 was at least 500 nM against human JAK1, below 5 nM at TYK2 JH2 domain, at least 500 nM at human JAK2 and at least 500 nM at human JAK3.
With `CCC(=O)c1cnc(Nc2ccc(-n3cccn3)cn2)cc1Nc1cccc(-c2ncn(C)n2)c1OC` [Compound 15H], the IC50 is at least 500 nM against human JAK1, below 5 nM on TYK2 JH2 domain, at least 500 nM against human JAK2 and at least 500 nM at human JAK3.
For `CCC(=O)c1cnc(Nc2ccc(-n3ccnc3)cn2)cc1Nc1cccc(-c2ncn(C)n2)c1OC` [Compound 15I], the IC50 is at least 500 nM at human JAK1, below 5 nM at TYK2 JH2 domain, at least 500 nM against human JAK2 and at least 500 nM at human JAK3.
For the molecule `CCC(=O)c1cnc(Nc2ccc(-c3cn(C)cn3)cn2)cc1Nc1nccc(-c2ncn(C)n2)c1OC` [Compound 15J], the IC50 against human JAK1 was at least 500 nM; at TYK2 JH2 domain, below 5 nM; on human JAK2 it was at least 500 nM; against human JAK3 it was at least 500 nM.
In the case of `COc1c(Nc2cc(Nc3ccc(-c4cn(C)cn4)cn3)ncc2C(=O)C2CC2)cccc1-c1ncn(C)n1` [Compound 15K], the IC50 at human JAK1 is at least 500 nM; on TYK2 JH2 domain, 5 to 50 nM; against human JAK2, at least 500 nM; on human JAK3, at least 500 nM.
With `COc1c(-c2ncn(C)n2)ccnc1Nc1cc(Nc2ccc(-c3cn(C)cn3)cn2)ncc1C(=O)C1CC1` [Compound 15L], the half-inhibitory concentration (IC50) was at least 500 nM against human JAK1, 5 to 50 nM on TYK2 JH2 domain, at least 500 nM at human JAK2 and at least 500 nM on human JAK3.
`CCC(=O)c1cnc(Nc2ccc(-c3ncn(C)n3)cn2)cc1Nc1nccc(-c2ncn(C)n2)c1OC` [Compound 15M]: the IC50 was at least 500 nM against human JAK1, 5 to 50 nM on TYK2 JH2 domain, at least 500 nM at human JAK2 and at least 500 nM on human JAK3.
Consider `COc1c(Nc2cc(Nc3ccc(-c4ncn(C)n4)cn3)ncc2C(=O)C2CC2)cccc1-c1ncn(C)n1` [Compound 15N], for which the IC50 is at least 500 nM on human JAK1, 5 to 50 nM at TYK2 JH2 domain, at least 500 nM against human JAK2 and at least 500 nM on human JAK3.
